Values joined by “and” are separate entries in the source; they are usually repeats but may differ in a detail not shown here. Equal entries are not always repeated. Residues, ends and D or L forms follow the SMILES beside them. *: point of attachment. Myristoyl = CCCCCCCCCCCCCC(=O)*
Assays:
[1] = test system: PP2A; experiment: Protein phosphatase activity assay in NHBE cells, PP2A; type: cell-based, human; conditions: 8-Br-cGMP as low as 0.1 μM
Method: (§1) To confirm further activation of PP2A by PKG in NHBE cells, cytosolic PP1 and PP2A activities were determined after exposure of the cells to 8-Br-cGMP. […] Accordingly, this PP2A activity appeared critical for mucin secretion to occur; when PKG-induced MARCKS dephosphorylation was blocked by okadaic acid or fostriecin, the secretory response to PKC/PKG activation or UTP stimulation was ameliorated (see Results-I-6-1 and Results-I-6-2, above).
(§2) Protein Phosphatase Activity Assay—PP1 and PP2A activities were measured using a protein phosphatase assay system (Life Technologies, Inc.) as known in the art with slight modification. Huang et al., Adv. Exp. Med. Biol. 396, 209-215 (1996). Briefly, NHBE cells were treated with 8-Br-cGMP or medium alone for 5 min. Cells were then scraped into a lysis buffer (50 mM Tris-HCl (pH 7.4), 0.1% beta-mecaptoethanol, 0.1 mM EDTA, 1 mM benaamidine, 10 μg/ml pepstatin A, 10 μg/ml leupeptin) and disrupted by sonication for 20 s at 4° C. […] Released ^32Pi was counted by scintillation. The protein concentration of each sample was determined by the Bradford assay. PP2A activity was expressed as the sample total phosphatase activity minus the activity remaining in the presence of 1 nM okadaic acid. PP1 activity was expressed as the difference between the activities remaining in the presence of 1 nM and 1 μM okadaic acid, respectively. […]

[2] = test system: PP1; experiment: Protein phosphatase activity assay in NHBE cells, PP1; type: cell-based, human; conditions: after exposure to 8-Br-cGMP
Method: as §1, §2

[3] = test system: LPS-primed canine neutrophils; experiment: MPO secretion from LPS-primed canine neutrophils; type: cell-based
Method: Results-I-11 and Results-I-12 show MPO secretion from LPS-primed human neutrophils as a model for humans, and Results-I-13, Results-I-14, and Results-I-15 show MPO secretion from LPS-primed canine neutrophils as a model for canines. In all of these experiments, isolated neutrophils were stimulated with LPS at a concentration of 1×10^−6 M for 10 minutes at 37° C. prior to adding the stimuli. The LPS primes the cells so they can respond to a secretagogue.
In another comparative experiment, when absorbance was monitored at 450 nm while observing MPO secretion from LPS-primed canine neutrophils, Results-I-13 were obtained as follows.
In another comparative experiment, when absorbance was monitored at 450 nm while observing MPO secretion from LPS-primed canine neutrophils, Results-I-14 were obtained as follows.
In another comparative experiment, when absorbance was monitored at 450 nm while observing MPO secretion from LPS-primed canine neutrophils, Results-I-15 were obtained as follows.
Isolation of PMNs from canine blood—The steps involved in isolating PMN include collecting 10 ml ACD anticoagulated blood; then layering 5 ml on 3.5 ml PMN isolation media while ensuring that the PMN isolation media (IM) was at room temperature (RI). Next, the blood was centrifuged at room temperature for 30′, 550×g at 1700 RPMs. The low lower white band was transferred into a 15 ml conical centrifuge tube (CCFT). Next, 2V HESS with 10% fetal bovine serum […] was added and centrifuged at room temperature for 10′, 400×g at 1400 RPMs. The pellet was then resuspended in 5 ml 1-1ESS with PBS. The cell suspension was added to 50 ml CCFT containing 20 ml of ice cold 0.88% NH4 Cland inverted two to three times. […]
MPO Colorimetric Enzyme Assay—Samples were assayed for MPO activity in 96 well round bottom microtiter plates using a sandwich ELISA kit (R & D Systems, Minneapolis, Minn.). […] After mixing, the assay mixture was incubated at room temperature for 5 minutes, and MPO enzyme activity determined spectrophotometrically at […]. […]

[4] = test system: human neutrophils; experiment: MPO secretion from isolated human neutrophils stimulated with PMA+8-Br-cGMP; type: cell-based
Method: MPO Colorimetric Enzyme Assay—Samples were assayed for MPO activity in 96 well round bottom microtiter plates using a sandwich ELISA kit (R & D Systems, Minneapolis, Minn.). Briefly, 20 microliters of sample is mixed with 180 microliters of substrate mixture containing 33 mM potassium phosphate, pH 6.0, […], 0.11 mM hydrogen peroxide, and 0.36 mM O-Diannisidine Dihydrochloride in an individual microtiter well. The final concentrations in the assay mixture are: 30 mM potassium phosphate, pH 6.0, 0.05% Triton X-100, 0.1 mM hydrogen peroxide, and 0.32 mM O-Diannisidine Dihydrochloride. […] Samples were assayed in duplicate.

[5] = peptide 1 μM + 100 nM PMA+10 μM 8-Br-cGMP, unstimulated control 0.076
[6] = peptide 10 μM + 100 nM PMA+10 μM 8-Br-cGMP
[7] = peptide 100 μM + 100 nM PMA+10 μM 8-Br-cGMP

## Nc1nc2c(nc(Br)n2[C@@H]2O[C@@H]3COP(=O)(O)O[C@H]3[C@H]2O)c(=O)[nH]1 [8-Br-cGMP]
[1]
  Increase of PP2A activity: approximately 3 fold
[1]; 5 min, baseline 0.1
  PP2A activity: 0.3 nmol/mnin/mg proteins
[2]
  PP1 activity: unchanged
[3]; 8-Br-cGMP 1 micromolar alone
  Absorbance reading at 450 nm (MPO secretion): approximately 0.078
[3]; 8-Br-cGMP 10 micromolar alone
  Absorbance reading at 450 nm (MPO secretion): approximately 0.0835

## CCCCCCCCCCCCCC(=O)NCC(=O)N[C@@H](C)C(=O)N[C@@H](CCC(N)=O)C(=O)N[C@@H](Cc1ccccc1)C(=O)N[C@@H](CO)C(=O)N[C@@H](CCCCN)C(=O)N[C@H](C(=O)N[C@@H](C)C(=O)N[C@@H](C)C(=O)N[C@@H](CCCCN)C(=O)NCC(=O)N[C@@H](CCC(=O)O)C(=O)N[C@@H](C)C(=O)N[C@@H](C)C(=O)N[C@@H](C)C(=O)N[C@@H](CCC(=O)O)C(=O)N[C@@H](CCCNC(=N)N)C(=O)N1CCC[C@H]1C(=O)NCC(=O)N[C@@H](CCC(=O)O)C(=O)N[C@@H](C)C(=O)N[C@@H](C)C(=O)N[C@H](C(=O)N[C@@H](C)C(=O)O)C(C)C)[C@@H](C)O [MANS peptide] (Myristoyl-GAQFSKTAAKGEAAAERPGEAAVA-OH; C-terminus assumed)
[4]; [5]
  Absorbance at 450 nm (MPO secretion): 0.102
[4]; [6]
  Absorbance at 450 nm (MPO secretion): 0.093
[4]; [7]
  Absorbance at 450 nm (MPO secretion): 0.068

## CCCCCCCCCCCCCC(=O)O[C@@H]1[C@@H](C)[C@@]2(O)[C@@H](C=C(CO)C[C@]3(O)C(=O)C(C)=C[C@@H]23)[C@@H]2C(C)(C)[C@]12OC(C)=O [PMA, phorbol 12-myristate 13-acetate]
[3]; 100 nM PMA alone
  Absorbance reading at 450 nm (MPO secretion): 0.078 and 0.0825

## CCCCCCCCCCCCCC(=O)NCC(=O)N[C@H](C(=O)N[C@@H](C)C(=O)N1CCC[C@H]1C(=O)N[C@@H](C)C(=O)N[C@@H](C)C(=O)N[C@@H](CCC(=O)O)C(=O)NCC(=O)N[C@@H](C)C(=O)NCC(=O)N[C@@H](C)C(=O)N[C@@H](CCC(=O)O)C(=O)N[C@H](C(=O)N[C@@H](CCCCN)C(=O)N[C@@H](CCCNC(=N)N)C(=O)N[C@@H](C)C(=O)N[C@@H](CO)C(=O)N[C@@H](C)C(=O)N[C@@H](CCC(=O)O)C(=O)N[C@@H](C)C(=O)N[C@@H](CCCCN)C(=O)N[C@@H](CCC(N)=O)C(=O)N[C@@H](C)C(=O)N[C@@H](Cc1ccccc1)C(=O)O)C(C)C)[C@@H](C)O [RNS peptide, reference compound] (Myristoyl-GTAPAAEGAGAEVKRASAEAKQAF-OH; C-terminus assumed)
[4]; [5]
  Absorbance at 450 nm (MPO secretion): 0.099
[4]; [6]
  Absorbance at 450 nm (MPO secretion): 0.100
[4]; [7]
  Absorbance at 450 nm (MPO secretion): 0.100

Source: US8501911B2, “Methods of reducing inflammation and mucus hypersecretion” (Biomarck Pharmaceuticals, Ltd, priority 1999, dated 2013)
